Ten compounds from patent publication US10138225B2 (Achillion Pharmaceuticals, Inc., priority 2015, dated 2018) can be followed below.

A value given as a limit tells only on which side of the number the result lay.

In this experiment the target is T1, Human Factor D (Homo sapiens, UniProt P00746).
T1 construct: purified from human serum; purchased Complement Technology, Inc; host or cells: human serum (natural protein, not recombinant)
T1 sequence (P00746 26-253): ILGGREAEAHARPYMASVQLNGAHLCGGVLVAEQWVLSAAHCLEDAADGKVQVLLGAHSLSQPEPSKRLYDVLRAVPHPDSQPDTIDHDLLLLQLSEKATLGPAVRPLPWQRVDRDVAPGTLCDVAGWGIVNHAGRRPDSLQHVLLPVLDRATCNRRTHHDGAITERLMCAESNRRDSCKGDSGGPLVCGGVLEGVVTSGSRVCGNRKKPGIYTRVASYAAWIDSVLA
The experiment in a line: Human Factor D Assay. In kind it is biochemical. As to conditions: Table 1; Factor D 80 nM, substrate Z-L-Lys-SBzl; read-out: IC50. How it is done:
Human Factor D (purified from human serum, Complement Technology, Inc.) at 80 nM final concentration is incubated with test compound at various concentrations for 5 minutes at room temperature in 50 mM Tris, 1M NaCl, pH 7.5. A synthetic substrate Z-L-Lys-SBzl and DTNB (Ellman's reagent) are added to final concentrations of 100 μM each. Absorbance at 405 nm (A405) is recorded at 30 second intervals for 30 minutes using a microplate spectrophotometer. IC50 values are calculated by nonlinear regression of complement Factor D reaction rates as a function of test compound concentration.
Broadly, the IC50 is the midpoint of a concentration-inhibition curve. Consider `CC(=O)c1cn(CC(=O)N2C[C@H](F)C[C@H]2C(=O)NCc2cccc(Cl)c2F)c2cc(C(=O)N3CCC(CN)C3)ccc12` (stereo partly drawn) [Compound 42, (2S,4R)-1-(2-(3-acetyl-6-(3-(aminomethyl)-pyrrolidine-1-carbonyl)-1H-indol-1-yl)acetyl)-N-(3-chloro-2-fluorobenzyl)-4-fluoropyrrolidine-2-carboxamide], for which the 50% inhibitory concentration (IC50) is less than 1000 nM.

For `CC(=O)c1cn(CC(=O)N2C[C@H](F)C[C@H]2C(=O)NCc2cccc(Cl)c2F)c2cc(C(=O)NS(C)(=O)=O)ccc12` [Compound 43], the 50% inhibitory concentration (IC50) was less than 1000 nM.

On to `CC(=O)c1cn(CC(=O)N2C[C@H](F)C[C@H]2C(=O)NCc2cccc(Cl)c2F)c2cc(C(=O)N[C@H]3CCN(C(=O)OC(C)(C)C)C3)ccc12` [Compound 44, (S)-tert-butyl 3-(3-acetyl-1-(2-((2S,4R)-2-(3-chloro-2-fluorobenzyl-carbamoyl)-4-fluoropyrrolidin-1-yl)-2-oxoethyl)-1H-indole-6-carboxamido) pyrrolidine-1-carboxylate], for which the IC50 is less than 1000 nM.

Consider `CC(=O)c1cn(CC(=O)N2C[C@H](F)C[C@H]2C(=O)NCc2cccc(Cl)c2F)c2cc(C(=O)N[C@H]3CCNC3)ccc12` [Compound 45, 3-acetyl-1-(2-((2S,4R)-2-(3-chloro-2-fluorobenzyl-carbamoyl)-4-fluoropyrrolidin-1-yl)-2-oxoethyl)-N-((S)-pyrrolidin-3-yl)-1H-indole-6-carboxamide], for which the IC50 was less than 1000 nM.

For the compound `CC(=O)c1cn(CC(=O)N2C[C@H](F)C[C@H]2C(=O)NCc2cccc(Cl)c2F)c2cc(C(=O)N[C@H]3CCN(C(C)=O)C3)ccc12` [Compound 46, 3-acetyl-N-((S)-1-acetylpyrrolidin-3-yl)-1-(2-((2S,4R)-2-(3-chloro-2-fluorobenzylcarbamoyl)-4-fluoropyrrolidin-1-yl)-2-oxoethyl)-1H-indole-6-carboxamide], the concentration for half-maximal inhibition (IC50) was less than 1000 nM.

On to `CC(=O)c1cn(CC(=O)N2C[C@H](F)C[C@H]2C(=O)NCc2cccc(Cl)c2F)c2cc(C(=O)NS(=O)(=O)C3CC3)ccc12` [Compound 48, 3-acetyl-1-(2-((2S,4R)-2-(3-chloro-2-fluorobenzylcarbamoyl)-4-fluoropyrrolidin-1-yl)-2-oxoethyl)-N-(cyclopropylsulfonyl)-1H-indole-6-carboxamide], for which the half-maximal inhibitory concentration (IC50) was less than 1000 nM.

`CC(=O)c1cn(CC(=O)N2C[C@H](F)C[C@H]2C(=O)NCc2cccc(Cl)c2F)c2cc(C(=O)NCC3CCNC3)ccc12` (stereo partly drawn) [Compound 49, 3-acetyl-1-(2-((2S,4R)-2-(3-chloro-2-fluorobenzylcarbamoyl)-4-fluoropyrrolildin-1-yl)-2-oxoethyl)-N-(pyrrolidin-3-ylmethyl)-1H-indole-6-carboxamide]: the IC50 is less than 1000 nM.

Turning to `CC(=O)c1cn(CC(=O)N2C[C@H](F)C[C@H]2C(=O)NCc2cccc(Cl)c2F)c2cc(C(=O)NCC3CCN(C(=O)OC(C)(C)C)C3)ccc12` (stereo partly drawn) [Compound 50, tert-butyl 3-((3-acetyl-1-(2-((2S,4R)-2-(3-chloro-2-fluorobenzylcarbamoyl)-4-fluoropyrrolidin-1-yl)-2-oxoethyl)-1H-indole-6-carboxamido)methyl) pyrrolidine-1-carboxylate], the IC50 was less than 1000 nM.

`COC(=O)C1CCN(C(=O)c2ccc3c(C(C)=O)cn(CC(=O)N4C[C@H](F)C[C@H]4C(=O)NCc4cccc(Cl)c4F)c3c2)C1` (stereo partly drawn) [Compound 51, methyl 1-(3-acetyl-1-(2-((2S,4R)-2-(3-chloro-2-fluorobenzylcarbamoyl)-4-fluoropyrrolidin-1-yl)-2-oxoethyl)-1H-indole-6-carbonyl)pyrrolidine-3-carboxylate]: the IC50 is less than 1000 nM.

For the compound `CC(=O)c1cn(CC(=O)N2C[C@H](F)C[C@H]2C(=O)NCc2cccc(Cl)c2F)c2cc(C(=O)N3CCC(C(=O)O)C3)ccc12` (stereo partly drawn) [Compound 52, 1-(3-acetyl-1-(2-((2S,4R)-2-(3-chloro-2-fluorobenzylcarbamoyl)-4-fluoropyrrolidin-1-yl)-2-oxoethyl)-1H-indole-6-carbonyl)pyrrolidine-3-carboxylic acid], the 50% inhibitory concentration (IC50) is less than 1000 nM.
